Laboratory results reported in patent US20240293413A1, “COMPOUND AND METHOD FOR TREATING CHEMOTHERAPY-RELATED GASTROINTESTINAL SIDE EFFECTS” (ONQUALITY PHARMACEUTICALS CHINA LTD., priority 2021, published 2024).

Experiments:
Type in all cases: in vivo
[1] = tested on: diarrhea caused by the continuous administration of a chemotherapeutic agent in Balb/c mice; experiment: Examples 444-469 (Table 9): oral CDK inhibitor, diarrhea caused by continuous administration of a chemotherapeutic agent
Source text: Balb/c mice were fed for 1 week, and then divided into groups. The experiment was divided into a control group, a chemotherapeutic agent group, and a CDK inhibitor group, each of which comprised 10 mice, to perform the administration experiment, for which the administration dosage, mode, time and frequency were shown in Table 9. The control group: being intragastrically administered with the same solvent as that used in the CDK inhibitor group (the time was shown in Table 9), and then being injected/intragastrically administered with the same solvent as that used in the chemotherapeutic agent group (the administration mode was shown in Table 9): the chemotherapeutic agent group: being intragastrically administered with the same solvent as that used in the CDK inhibitor group (the time was shown in Table 9), and then being injected/intragastrically administered with the chemotherapeutic agent (the type, administration mode, dosage and duration time were shown in Table 9): the CDK inhibitor group: being intragastrically administered with the CDK inhibitor (the time was shown in Table 9), and then being administered with the chemotherapeutic agent (the type, administration mode, dosage and duration time were shown in Table 9).
The scoring of diarrhea can refer to the method of Akinobu Kurita (Cancer Chemother Pharmacol 2000: 46:211-20.), Grade 0: normal feces: Grade 1: mild diarrhea, the stools is slightly wet and soft: Grade 2: moderate diarrhea, loose stools and mild perianal contamination: Grade 3: severe diarrhea, watery stools and accompanied by severe perianal staining (see FIG. 1). It is regarded as effective remission when the diarrhea grading of mice in the CDK inhibitor group is reduced compared with the average diarrhea grading of mice in the chemotherapeutic agent group.
The diarrhea grading of mice was observed and recorded every day. At the end of the experiment, the number of mice in the CDK inhibitor group whose diarrhea grading was lower than that of mice in the chemotherapeutic agent group was recorded. Table 9 lists various animal experiment combinations of chemotherapeutic agents and CDK inhibitors, as well as the corresponding experimental results. (Relative remission rate %=the number of mice in the CDK inhibitor group whose diarrhea has been effectively relieved/the total number of mice in the CDK inhibitor group*100%. The establishment rate of diarrhea model in the chemotherapeutic agent group was 50%-80%, that is, about 5-8 of 10 mice developed diarrhea during the experiment, and there were cases of individual mice death or not developing diarrhea.)

[2] = tested on: diarrhea caused by a chemotherapeutic agent in Balb/c mice; experiment: Examples 230-271 (Table 4): oral CDK inhibitor, relief of diarrhea caused by a chemotherapeutic agent
Outline: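 Balb/c mice, 10 per group (vehicle, chemotherapeutic agent, CDK inhibitor plus chemotherapeutic); CDK inhibitor dosed intragastrically before the chemotherapeutic agent by injection or gavage. Diarrhea graded daily.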

[3] = tested on: Chemotherapeutic agent-caused constipation models of Balb/c mice; experiment: Examples 272-342 (Table 5): oral CDK inhibitor, relief of constipation caused by a chemotherapeutic agent;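 further: percent of treated mice relieved versus chemotherapy group by feces reduction rate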
Outline: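 Feces reduction rate (%) = (control − treated)/control × 100%, based on the 3-hour feces amount recorded each day. Groups of 10 Balb/c mice received solvent, chemotherapeutic agent alone, or an oral CDK inhibitor before the chemotherapeutic agent.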

**Q.** For `CN1CCN(c2ccc(Nc3ncc4cc5n(c4n3)C3(CCCCC3)CNC5=O)nc2)CC1` [Trilaciclib (G1T28), Trilaciclib], which Relative remission rate ([1]; Examples 452-455 (one value given; 2 h, 4 h, 6 h, 8 h before), Fluorouracil (5-Fu) intraperitoneal injection 70 mg/kg once a day, for 7 days, CDK inhibitor oral 125 mg/kg once a day, for 7 days, cycle 10 days) is on record?
**A.** Its Relative remission rate is 10%.

**Q.** And the Relative remission rate ([1]; Examples 458-461 (one value given; 2 h, 4 h, 6 h, 8 h before), Capecitabine oral administration 1000 mg/kg (printed 100/0 wrapped) once a day, for 5 days, CDK inhibitor oral 100 mg/kg once a day, for 5 days, cycle 14 days)?
**A.** Its Relative remission rate is 50%.

**Q.** What about the “relieving effect on diarrhea” value ([1]; continuous administration of fluorouracil and capecitabine for 7 days or above) of the same molecule?
**A.** Its value is “not significant”.

**Q.** And the “relieving effect on diarrhea” value ([1]; continuous administration of fluorouracil for less than 7 days)?
**A.** The value was “significant relieving effects”.

**Q.** And the Relative remission rate ([2]; Example 236, Doxorubicin (Dox) intravenous injection 12 mg/kg single, CDK inhibitor oral 180 mg/kg single, 1 h before, cycle 10 days)?
**A.** Its Relative remission rate is 40%.

**Q.** And the Relative remission rate ([2]; Example 237, Doxorubicin (Dox) intravenous injection 12 mg/kg single, CDK inhibitor oral 180 mg/kg single, 12 h before, cycle 10 days)?
**A.** The Relative remission rate was 60%.

**Q.** What about the Relative remission rate ([2]; Example 238, Doxorubicin (Dox) intravenous injection 12 mg/kg single, CDK inhibitor oral 180 mg/kg single, 24 h before, cycle 10 days) of the same molecule?
**A.** The Relative remission rate was 60%.

**Q.** What about the Relative remission rate ([2]; Example 239, Doxorubicin (Dox) intravenous injection 12 mg/kg single, CDK inhibitor oral 180 mg/kg single, 48 h before, cycle 10 days) of the same molecule?
**A.** The Relative remission rate was 0%.

**Q.** And the Relative remission rate ([2]; Example 254, Cytarabine (Ara-C) intraperitoneal injection 600 mg/kg single, CDK inhibitor oral 100 mg/kg single, 0.5 h before, cycle 8 days)?
**A.** Its Relative remission rate is 60%.

**Q.** And the Relative remission rate ([2]; Example 255, Cytarabine (Ara-C) intraperitoneal injection 600 mg/kg single, CDK inhibitor oral 100 mg/kg single, 4 h before, cycle 8 days)?
**A.** Its Relative remission rate is 80%.

**Q.** And the Relative remission rate ([2]; Example 256, Cytarabine (Ara-C) intraperitoneal injection 600 mg/kg single, CDK inhibitor oral 100 mg/kg single, 8 h before, cycle 8 days)?
**A.** Its Relative remission rate is 80%.

**Q.** What about the Relative remission rate ([2]; Example 257, Cytarabine (Ara-C) intraperitoneal injection 600 mg/kg single, CDK inhibitor oral 100 mg/kg single, 12 h before, cycle 8 days) of the same molecule?
**A.** The Relative remission rate was 60%.

**Q.** What about the Relative remission rate ([2]; Example 258, Cytarabine (Ara-C) intraperitoneal injection 600 mg/kg single, CDK inhibitor oral 100 mg/kg single, 24 h before, cycle 8 days) of the same molecule?
**A.** Its Relative remission rate is 40%.

**Q.** What about the Relative remission rate ([2]; Example 259, Cytarabine (Ara-C) intraperitoneal injection 600 mg/kg single, CDK inhibitor oral 100 mg/kg single, 48 h before, cycle 8 days) of the same molecule?
**A.** Its Relative remission rate is 0%.

**Q.** And the Relative remission rate ([2]; Example 270, Vinorelbine (NVB) intramuscular injection 10 mg/kg single, CDK inhibitor oral 50 mg/kg single, 1 h before, cycle 7 days)?
**A.** Its Relative remission rate is 50%.

**Q.** And the Relative remission rate ([3]; Example 272, Fluorouracil (5-Fu) intraperitoneal injection 175 mg/kg single, CDK inhibitor oral 100 mg/kg single, 0.5 h before, cycle 7 days)?
**A.** Its Relative remission rate is 50%.

**Q.** What about the Relative remission rate ([3]; Example 273, Fluorouracil (5-Fu) intraperitoneal injection 175 mg/kg single, CDK inhibitor oral 100 mg/kg single, 1 h before, cycle 7 days) of the same molecule?
**A.** Its Relative remission rate is 50%.

**Q.** And the Relative remission rate ([3]; Example 274, Fluorouracil (5-Fu) intraperitoneal injection 175 mg/kg single, CDK inhibitor oral 100 mg/kg single, 2 h before, cycle 7 days)?
**A.** Its Relative remission rate is 50%.

**Q.** And the Relative remission rate ([3]; Example 275, Fluorouracil (5-Fu) intraperitoneal injection 175 mg/kg single, CDK inhibitor oral 100 mg/kg single, 3 h before, cycle 7 days)?
**A.** The Relative remission rate was 40%.

**Q.** What about the Relative remission rate ([3]; Example 276, Fluorouracil (5-Fu) intraperitoneal injection 175 mg/kg single, CDK inhibitor oral 100 mg/kg single, 4 h before, cycle 7 days) of the same molecule?
**A.** The Relative remission rate was 60%.

**Q.** What about the Relative remission rate ([3]; Example 277, Fluorouracil (5-Fu) intraperitoneal injection 175 mg/kg single, CDK inhibitor oral 100 mg/kg single, 5 h before, cycle 7 days) of the same molecule?
**A.** The Relative remission rate was 40%.

**Q.** And the Relative remission rate ([3]; Example 278, Fluorouracil (5-Fu) intraperitoneal injection 175 mg/kg single, CDK inhibitor oral 100 mg/kg single, 6 h before, cycle 7 days)?
**A.** The Relative remission rate was 60%.

**Q.** And the Relative remission rate ([3]; Example 279, Fluorouracil (5-Fu) intraperitoneal injection 175 mg/kg single, CDK inhibitor oral 100 mg/kg single, 7 h before, cycle 7 days)?
**A.** The Relative remission rate was 70%.

**Q.** And the Relative remission rate ([3]; Example 280, Fluorouracil (5-Fu) intraperitoneal injection 175 mg/kg single, CDK inhibitor oral 100 mg/kg single, 8 h before, cycle 7 days)?
**A.** Its Relative remission rate is 70%.

**Q.** What about the Relative remission rate ([3]; Example 281, Fluorouracil (5-Fu) intraperitoneal injection 175 mg/kg single, CDK inhibitor oral 100 mg/kg single, 9 h before, cycle 7 days) of the same molecule?
**A.** Its Relative remission rate is 60%.

**Q.** What about the Relative remission rate ([3]; Example 282, Fluorouracil (5-Fu) intraperitoneal injection 175 mg/kg single, CDK inhibitor oral 100 mg/kg single, 10 h before, cycle 7 days) of the same molecule?
**A.** The Relative remission rate was 60%.

**Q.** And the Relative remission rate ([3]; Example 283, Fluorouracil (5-Fu) intraperitoneal injection 175 mg/kg single, CDK inhibitor oral 100 mg/kg single, 11 h before, cycle 7 days)?
**A.** Its Relative remission rate is 50%.

**Q.** What about the Relative remission rate ([3]; Example 284, Fluorouracil (5-Fu) intraperitoneal injection 175 mg/kg single, CDK inhibitor oral 100 mg/kg single, 12 h before, cycle 7 days) of the same molecule?
**A.** Its Relative remission rate is 70%.

**Q.** What about the Relative remission rate ([3]; Example 285, Fluorouracil (5-Fu) intraperitoneal injection 175 mg/kg single, CDK inhibitor oral 100 mg/kg single, 13 h before, cycle 7 days) of the same molecule?
**A.** The Relative remission rate was 40%.

**Q.** And the Relative remission rate ([3]; Example 286, Fluorouracil (5-Fu) intraperitoneal injection 175 mg/kg single, CDK inhibitor oral 100 mg/kg single, 14 h before, cycle 7 days)?
**A.** Its Relative remission rate is 60%.

**Q.** And the Relative remission rate ([3]; Example 287, Fluorouracil (5-Fu) intraperitoneal injection 175 mg/kg single, CDK inhibitor oral 100 mg/kg single, 16 h before, cycle 7 days)?
**A.** Its Relative remission rate is 50%.

**Q.** What about the Relative remission rate ([3]; Example 288, Fluorouracil (5-Fu) intraperitoneal injection 175 mg/kg single, CDK inhibitor oral 100 mg/kg single, 18 h before, cycle 7 days) of the same molecule?
**A.** Its Relative remission rate is 60%.

**Q.** And the Relative remission rate ([3]; Example 289, Fluorouracil (5-Fu) intraperitoneal injection 175 mg/kg single, CDK inhibitor oral 100 mg/kg single, 20 h before, cycle 7 days)?
**A.** Its Relative remission rate is 50%.

**Q.** And the Relative remission rate ([3]; Example 290, Fluorouracil (5-Fu) intraperitoneal injection 175 mg/kg single, CDK inhibitor oral 100 mg/kg single, 22 h before, cycle 7 days)?
**A.** Its Relative remission rate is 30%.

**Q.** And the Relative remission rate ([3]; Example 291, Fluorouracil (5-Fu) intraperitoneal injection 175 mg/kg single, CDK inhibitor oral 100 mg/kg single, 24 h before, cycle 7 days)?
**A.** The Relative remission rate was 30%.

**Q.** What about the Relative remission rate ([3]; Example 292, Fluorouracil (5-Fu) intraperitoneal injection 175 mg/kg single, CDK inhibitor oral 100 mg/kg single, 48 h before, cycle 7 days) of the same molecule?
**A.** The Relative remission rate was 0%.

**Q.** And the Relative remission rate ([3]; Example 303, Fluorouracil and oxaliplatin intraperitoneal injection 100 (F) 10 (O) mg/kg single, CDK inhibitor oral 100 mg/kg single, 24 h before, cycle 10 days)?
**A.** The Relative remission rate was 40%.

**Q.** What about the Relative remission rate ([3]; Example 311, Irinotecan (CPT-11) intramuscular injection 260 mg/kg single, CDK inhibitor oral 50 mg/kg single, 1 h before, cycle 7 days) of the same molecule?
**A.** The Relative remission rate was 60%.

**Q.** What about the Relative remission rate ([3]; Example 314, Fluorouracil and oxaliplatin and irinotecan intraperitoneal injection 70 (F) 5 (O) 100 (I) mg/kg single, CDK inhibitor oral 180 mg/kg single, 12 h before, cycle 10 days) of the same molecule?
**A.** The Relative remission rate was 60%.

**Q.** What about the Relative remission rate ([3]; Example 323, Docetaxel (DTX) intravenous injection 10 mg/kg single, CDK inhibitor oral 100 mg/kg single, 9 h before, cycle 8 days) of the same molecule?
**A.** The Relative remission rate was 60%.

**Q.** And the Relative remission rate ([3]; Example 327, Cytarabine (Ara-C) intraperitoneal injection 600 mg/kg single, CDK inhibitor oral 100 mg/kg single, 0.5 h before, cycle 8 days)?
**A.** Its Relative remission rate is 80%.

**Q.** And the Relative remission rate ([3]; Example 328, Cytarabine (Ara-C) intraperitoneal injection 600 mg/kg single, CDK inhibitor oral 100 mg/kg single, 4 h before, cycle 8 days)?
**A.** Its Relative remission rate is 60%.

**Q.** What about the Relative remission rate ([3]; Example 329, Cytarabine (Ara-C) intraperitoneal injection 600 mg/kg single, CDK inhibitor oral 100 mg/kg single, 8 h before, cycle 8 days) of the same molecule?
**A.** The Relative remission rate was 40%.

**Q.** And the Relative remission rate ([3]; Example 330, Cytarabine (Ara-C) intraperitoneal injection 600 mg/kg single, CDK inhibitor oral 100 mg/kg single, 12 h before, cycle 8 days)?
**A.** The Relative remission rate was 40%.

**Q.** And the Relative remission rate ([3]; Example 331, Cytarabine (Ara-C) intraperitoneal injection 600 mg/kg single, CDK inhibitor oral 100 mg/kg single, 24 h before, cycle 8 days)?
**A.** The Relative remission rate was 40%.

**Q.** And the Relative remission rate ([3]; Example 332, Cytarabine (Ara-C) intraperitoneal injection 600 mg/kg single, CDK inhibitor oral 100 mg/kg single, 48 h before, cycle 8 days)?
**A.** Its Relative remission rate is 0%.
